{"source": "patent US10813931B2", "about": "“Methods and compositions relating to the treatment of cancer” (THE BRIGHAM AND WOMEN'S HOSPITAL, INC., priority 2013, dated 2020)", "key": {"[1]": {"tested_on": "MDA-MB-468 (468) cell line", "experiment": "CD44/CD24 surface expression by FACS in 468 cells", "type": "cell-based, human", "procedure": "MDA-MB-231, MDA-MB-468 were purchased from ATCC. For acute treatments, cells were plated at a density of 0.5-1×10^5 cells/ml and allowed to adhere for 24-48 hr. when cells reached ˜70% confluency they were treated with antitubulins at indicated concentrations for 4-24 hours and utilized for subsequent assays. To generate chemotherapy tolerant subset, cells were treated with indicated concentrations of chemotherapy (48). Following washes with PBS, adherent cells were trypsinized and re-plated at a density of 1.5-2×10^5 cells/ml and cultured in serum-containing medium. […]\nCells were cultured as indicated and fixed with 4% paraformaldehyde in PBS for 30 min at RT and blocked in 10% goat serum (v/v). Following PBS washes, cells were incubated with indicated antibodies for 60 minutes at room temperature or overnight at 4 C and analyzed by FACS (Accuri cyomteters Inc. Ann Arbor, Mich.). Cell cycle analyzed in propidium iodide solution following incubation in 70% Ethanol overnight at 4 C and following manufacturer protocol (Genscript USA Inc. Piscataway, N.J.). AnnexinV/PI was analyzed FACS following manufacturer protocol (BD, Ann Arbor Mich.). All FACS results were analyzed by FlowJo™ software following a rigorous doublet discrimination based on FSC:A vs. width as well as FSC:A vs. height (Tree Star Inc., Ashland Oreg.). […]"}, "[2]": {"tested_on": "CD44, Src (Y527), PRAS40 T246, Hck", "experiment": "4T-1 tumor tissue western blot / IHC of CD44 and kinase phosphorylation", "type": "in vivo, mouse", "settings": "diminished by day 19", "procedure": "4-6 week old Balb/C mice (Charles River, Cambridge Mass.) were inoculated with 10^6 4 T-1 mouse mammary carcinoma cells in the left flank (Charles River, Cambridge Mass.). Mice identified with tumors were treated with docetaxel (DTX) or vehicle twice at 72 hour intervals at 10 mg/kg i.v. or 15 mg/kg i.p. and subsequently treated with dasatinib i.p. or nanoparticles i.v. 72 hours following the final DTX dose. Tumors were harvested at indicated time points and evaluated for protein phosphorylation and expression. Experimental detail provided in supplemental data.\n1 million 4T-1 mouse mammary carcinoma cells suspended in 100 µL PBS were injected per left flank of 5-6 week old Balb/C (Charles River, Wilmington Mass.). DTX was dissolved in pure Ethanol at a concentration of 50 mg/ml mixed 1:1 with Polysorbate 80 (Tween 80) and brought to a final working concentration with 5% glucose in PBS. Once Tumors became palpable (˜100 mm^3), DTX or vehicle treatments were administered at 100 μL volumes. Dasatinib was dissolved in DMSO to working concentration and delivered as 50 μL injections on indicated days, 50 µL DMSO used as a control in these studies. Tumor volumes were measured by a third party unaware of treatment conditions using digital calipers (Starlett, Athol, Mass.), volumes were assessed by the following formula: (Width×Width×length)/2 and expressed as relative volume increase from day 1. Tumor homogenate was prepared by homogenization of equal weight tissue sections incubated in 3×RIPA buffer containing 2× protease/phosphatase inhibitor cocktail (Thermo Fisher, Waltham, Mass.).\nCells were generated as described above and plated in 4 chamber glass slides (BD Biosciences, San Jose Calif.) at a concentration of 100,000 cells/ml. Following treatments, cells were washed in PBS and fixed in 4% Paraformaldehyde for 30 minutes. […] Blocking was performed in 10% (v/v) Goat serum in PBS. The cells were labeled with the indicated primary antibodies at 1:100 and tagged with FITC or unconjugated followed by a secondary antibody conjugated with Alexa Fluor 488 or Alexa Fluor 594 (Invitrogen Carlsbad Calif.) at 1:250 were added 24 hours later and incubated for 90 minutes at room temperature in blocking buffer and masked with DAPI-containing hard-set mounting medium (Vector Laboratories, Burlingame Calif.). Bright field and fluorescent images were obtained using three channels on a NIKON Eclipse TI-U microscope with a 20×ELDW, 10× or 40× Plan-Apo objective lens (Nikon, Melville N.Y.). […] For histological quantification, IHC were scored blindly by a clinical pathologist based on number of cells which stain for the target protein (1-4) and multiplied by the intensity of staining as a subjective percentile. This value was expressed as IHC score to quantify the level of staining. […]"}}, "data": [{"smiles": "CC(=O)O[C@@]12CO[C@@H]1C[C@H](O)[C@@]1(C)C(=O)[C@H](O)C3=C(C)[C@@H](OC(=O)[C@H](O)[C@@H](NC(=O)OC(C)(C)C)c4ccccc4)C[C@@](O)([C@@H](OC(=O)c4ccccc4)[C@H]21)C3(C)C", "note": "[DTX, docetaxel]", "values": [{"measurement": "CD44/CD24 signature", "setting": "[1]; 10 nM docetaxel, 24 h", "value": "induced a CD44^HI, CD24^+/HI signature"}, {"measurement": "CD44 surface expression", "setting": "[1]; 24 hour incubation, 10 nM DTX", "value": "induction of CD44 was observed"}, {"measurement": "Hck phosphorylation in tumor (IHC)", "setting": "[2]; DTX day 9 vs control", "value": "markedly enhanced"}, {"measurement": "activated PRAS40 T246 in tumor", "setting": "[2]; DTX day 9 vs control", "value": "enhancement"}, {"measurement": "inhibitory residue of Src (Y527) phosphorylation in tumor", "setting": "[2]; DTX day 9 vs control", "value": "Reduction"}, {"measurement": "CD44 expression in tumor tissue", "setting": "[2]; DTX-treated day 9 vs control day 9", "value": "significantly enhanced CD44 expression"}]}]}
